Measured values reported in ChEMBL document CHEMBL1201862, “PubChem BioAssay data set” (2004).
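48-hour exposure; five concentrations; linearly interpolated endpoints. The concentration for 50% growth inhibition is given as GI50.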 Activity calls are given as the source filed them. No stated cut-off is given here; in the data, active = GI50 up to about 1.1 µM and inactive = higher. Starred links: 1 amine or outer side, 2 acyl side, 3 side chain; linkers in the order of their positions; H or OH if unused. Non-standard residues stand in square brackets, D forms with d. Residues, ends and D or L forms follow the SMILES beside them. X35 = C=CCC(O[*:1])C(=O)[*:2]; NMeV = CN[CH](C(=O)O)C(C)C; NMeA = CN[CH](C)C(=O)O; βAla = NCCC(=O)O

Key:
Experiment in all cases: growth of human tumour cells (NCI), 48 h
UACC-62 = tested on: UACC-62
OVCAR-8 = tested on: OVCAR-8
K562 = tested on: K562
NCI/ADR-RES = tested on: NCI/ADR-RES
SF-295 = tested on: SF-295
LOX IMVI = tested on: LOX IMVI
MOLT-4 = tested on: MOLT-4
BT-549 = tested on: BT-549
T47D = tested on: T47D
SN12C = tested on: SN12C
HOP-62 = tested on: HOP-62
SK-MEL-28 = tested on: SK-MEL-28
SR = tested on: SR
NCI-H460 = tested on: NCI-H460
Hs-578T = tested on: Hs-578T
A549 = tested on: A549
CCRF-CEM = tested on: CCRF-CEM
HL-60 = tested on: HL-60
NCI-H23 = tested on: NCI-H23
SK-MEL-5 = tested on: SK-MEL-5

For `c1ccc(COC2NCCN2Cc2ccccc2)cc1` (centres undefined), the GI50 (UACC-62) was 63.2 µM (inactive), the GI50 (OVCAR-8) was > 100 µM (inactive) and the GI50 (K562) was > 100 µM (inactive). For the same compound, the GI50 (NCI/ADR-RES) was 84.5 µM (inactive), the GI50 (SF-295) was > 100 µM (inactive) and the GI50 (LOX IMVI) was > 100 µM (inactive). For the same compound, the GI50 (MOLT-4) was > 100 µM (inactive), the GI50 (BT-549) was > 100 µM (inactive) and the GI50 (T47D) was > 100 µM (inactive). The GI50 (SN12C) was > 100 µM (inactive), the GI50 (HOP-62) was > 100 µM (inactive) and the GI50 (SK-MEL-28) was > 100 µM (inactive). The GI50 (SR) was > 100 µM (inactive), the GI50 (NCI-H460) was > 100 µM (inactive) and the GI50 (Hs-578T) was 5.64 µM (inactive). The GI50 (A549) was > 100 µM (inactive), the GI50 (CCRF-CEM) was > 100 µM (inactive) and the GI50 (HL-60) was 69 µM (inactive). The GI50 (NCI-H23) was > 100 µM (inactive) and the GI50 (SK-MEL-5) was > 100 µM (inactive).

For `O=[N+]([O-])c1cccc2nc3ccccc3c(NCCCCCNc3c4ccccc4nc4cccc([N+](=O)[O-])c34)c12`, the GI50 (UACC-62) was 0.153 µM (active), the GI50 (OVCAR-8) was 0.0492 µM (active) and the GI50 (K562) was 0.00466 µM (active). The GI50 (NCI/ADR-RES) was 0.168 µM (active), the GI50 (SF-295) was 0.137 µM (active) and the GI50 (LOX IMVI) was 0.168 µM (active). The GI50 (MOLT-4) was 0.0203 µM (active), the GI50 (BT-549) was 0.159 µM (active) and the GI50 (T47D) was 0.179 µM (active). The GI50 (SN12C) was 0.0151 µM (active), the GI50 (HOP-62) was 0.0579 µM (active) and the GI50 (SK-MEL-28) was 0.171 µM (active). The GI50 (SR) was 0.00271 µM (active), the GI50 (NCI-H460) was 0.0296 µM (active) and the GI50 (Hs-578T) was 0.0879 µM (active). The GI50 (A549) was 0.0366 µM (active), the GI50 (CCRF-CEM) was 0.0518 µM (active) and the GI50 (HL-60) was 0.00745 µM (active). For the same compound, the GI50 (NCI-H23) was 0.0412 µM (active) and the GI50 (SK-MEL-5) was 0.0895 µM (active).

For `CN(C)C(=S)SN(C)C(=O)Nc1ccccc1`, the GI50 (UACC-62) was 3.62 µM (inactive), the GI50 (OVCAR-8) was 35.3 µM (inactive) and the GI50 (K562) was 0.998 µM (active). The GI50 (NCI/ADR-RES) was 3.2 µM (inactive), the GI50 (SF-295) was 49.3 µM (inactive) and the GI50 (LOX IMVI) was 8.26 µM (inactive). For the same compound, the GI50 (MOLT-4) was 2.76 µM (inactive), the GI50 (BT-549) was > 41.2 µM (inactive) and the GI50 (T47D) was 1.26 µM (inactive). For the same compound, the GI50 (SN12C) was 41.2 µM (inactive), the GI50 (HOP-62) was > 65.9 µM (inactive) and the GI50 (SK-MEL-28) was 12.2 µM (inactive). The GI50 (SR) was 5.43 µM (inactive), the GI50 (NCI-H460) was 1.82 µM (inactive) and the GI50 (Hs-578T) was > 100 µM (inactive). The GI50 (A549) was 23.4 µM (inactive), the GI50 (CCRF-CEM) was 0.993 µM (active) and the GI50 (HL-60) was 2.86 µM (inactive). The GI50 (NCI-H23) was 7.4 µM (inactive) and the GI50 (SK-MEL-5) was 3.28 µM (inactive).

For `Cc1cccc(/N=C/C=C(\Cl)c2ccc3ccccc3c2)c1`, the GI50 (UACC-62) was 15.1 µM (inactive), the GI50 (OVCAR-8) was 18.4 µM (inactive) and the GI50 (K562) was 12.6 µM (inactive). The GI50 (NCI/ADR-RES) was 17.7 µM (inactive), the GI50 (SF-295) was 32.1 µM (inactive) and the GI50 (LOX IMVI) was 2.79 µM (inactive). The GI50 (MOLT-4) was 2.56 µM (inactive), the GI50 (BT-549) was 19.1 µM (inactive) and the GI50 (T47D) was 4.88 µM (inactive). The GI50 (SN12C) was 16.6 µM (inactive), the GI50 (HOP-62) was 17 µM (inactive) and the GI50 (SK-MEL-28) was 17.5 µM (inactive). For the same compound, the GI50 (SR) was 3.88 µM (inactive), the GI50 (NCI-H460) was 28.4 µM (inactive) and the GI50 (Hs-578T) was 26.6 µM (inactive). For the same compound, the GI50 (A549) was 44.6 µM (inactive), the GI50 (CCRF-CEM) was 4.15 µM (inactive) and the GI50 (HL-60) was 11.4 µM (inactive). For the same compound, the GI50 (NCI-H23) was 13.9 µM (inactive) and the GI50 (SK-MEL-5) was 17.7 µM (inactive).

In the case of `Cc1ccc([C@H]2CC(=O)C[C@H](c3ccc(C)cc3)C23C(=O)c2ccccc2C3=O)cc1`, the GI50 (UACC-62) is reported as 37.7 µM (inactive), the GI50 (OVCAR-8) is reported as 31 µM (inactive) and the GI50 (K562) is reported as 23.3 µM (inactive). The GI50 (NCI/ADR-RES) was 10.1 µM (inactive), the GI50 (SF-295) was 21.1 µM (inactive) and the GI50 (LOX IMVI) was 9.98 µM (inactive). For the same compound, the GI50 (MOLT-4) was 27 µM (inactive), the GI50 (BT-549) was 34.3 µM (inactive) and the GI50 (T47D) was > 100 µM (inactive). The GI50 (SN12C) was 48.4 µM (inactive), the GI50 (HOP-62) was 22.1 µM (inactive) and the GI50 (SK-MEL-28) was > 100 µM (inactive). For the same compound, the GI50 (SR) was 13.2 µM (inactive), the GI50 (NCI-H460) was 47.2 µM (inactive) and the GI50 (Hs-578T) was 19.9 µM (inactive). For the same compound, the GI50 (A549) was 43.2 µM (inactive), the GI50 (CCRF-CEM) was 14 µM (inactive) and the GI50 (HL-60) was 11 µM (inactive). For the same compound, the GI50 (NCI-H23) was > 100 µM (inactive) and the GI50 (SK-MEL-5) was 34.4 µM (inactive).

With `C=CCC1OC(=O)CCNC(=O)C(C)N(C)C(=O)C(C(C)C)N(C)C(=O)C(C(C)CC)NC(=O)C2CCCN2C1=O` (centres undefined) (cyclo([X35]PI[NMeV][NMeA][βAla]); configuration not given here) the GI50 (UACC-62) was 2.68 µM (inactive), the GI50 (OVCAR-8) was 7.89 µM (inactive) and the GI50 (NCI/ADR-RES) was > 100 µM (inactive). For the same compound, the GI50 (SF-295) was 4.08 µM (inactive), the GI50 (LOX IMVI) was 1.85 µM (inactive) and the GI50 (MOLT-4) was 2.11 µM (inactive). The GI50 (BT-549) was 32 µM (inactive), the GI50 (T47D) was 20.8 µM (inactive) and the GI50 (SN12C) was > 100 µM (inactive). For the same compound, the GI50 (HOP-62) was 10.2 µM (inactive), the GI50 (SK-MEL-28) was 42.7 µM (inactive) and the GI50 (SR) was 2.58 µM (inactive). The GI50 (NCI-H460) was 3.66 µM (inactive), the GI50 (Hs-578T) was 91.6 µM (inactive) and the GI50 (A549) was 9.84 µM (inactive). The GI50 (CCRF-CEM) was 3.1 µM (inactive), the GI50 (HL-60) was 2.56 µM (inactive) and the GI50 (NCI-H23) was 33.2 µM (inactive). The GI50 (SK-MEL-5) was 2.44 µM (inactive).

In the case of `CC[C@@]1(O)C(=O)OCc2c1cc1n(c2=O)Cc2cc3ccccc3nc2-1` [CAMPTOTHECIN], the GI50 (UACC-62) is reported as < 0.0106 µM (active), the GI50 (OVCAR-8) is reported as 0.0388 µM (active) and the GI50 (K562) is reported as 0.0764 µM (active). The GI50 (NCI/ADR-RES) was 0.012 µM (active), the GI50 (SF-295) was 0.0115 µM (active) and the GI50 (LOX IMVI) was 0.0261 µM (active). For the same compound, the GI50 (MOLT-4) was < 0.01 µM (active), the GI50 (BT-549) was 0.115 µM (active) and the GI50 (T47D) was 0.0225 µM (active). The GI50 (SN12C) was 0.014 µM (active), the GI50 (HOP-62) was 0.0116 µM (active) and the GI50 (SK-MEL-28) was 0.228 µM (active). For the same compound, the GI50 (SR) was < 0.01 µM (active), the GI50 (NCI-H460) was 0.0158 µM (active) and the GI50 (Hs-578T) was 0.817 µM (active). For the same compound, the GI50 (A549) was 0.0181 µM (active), the GI50 (CCRF-CEM) was < 0.01 µM (active) and the GI50 (HL-60) was 0.015 µM (active). For the same compound, the GI50 (NCI-H23) was 0.0194 µM (active) and the GI50 (SK-MEL-5) was 0.0272 µM (active).
